One may read the Ki as a dissociation constant, usually derived from enzyme kinetics or from competition with a known ligand.

This is an account of results in patent publication US8796289B2 (AbbVie Inc., priority 2011, dated 2014).

Sequence of GST-tagged-Wee1 kinase (P30291 whole entry): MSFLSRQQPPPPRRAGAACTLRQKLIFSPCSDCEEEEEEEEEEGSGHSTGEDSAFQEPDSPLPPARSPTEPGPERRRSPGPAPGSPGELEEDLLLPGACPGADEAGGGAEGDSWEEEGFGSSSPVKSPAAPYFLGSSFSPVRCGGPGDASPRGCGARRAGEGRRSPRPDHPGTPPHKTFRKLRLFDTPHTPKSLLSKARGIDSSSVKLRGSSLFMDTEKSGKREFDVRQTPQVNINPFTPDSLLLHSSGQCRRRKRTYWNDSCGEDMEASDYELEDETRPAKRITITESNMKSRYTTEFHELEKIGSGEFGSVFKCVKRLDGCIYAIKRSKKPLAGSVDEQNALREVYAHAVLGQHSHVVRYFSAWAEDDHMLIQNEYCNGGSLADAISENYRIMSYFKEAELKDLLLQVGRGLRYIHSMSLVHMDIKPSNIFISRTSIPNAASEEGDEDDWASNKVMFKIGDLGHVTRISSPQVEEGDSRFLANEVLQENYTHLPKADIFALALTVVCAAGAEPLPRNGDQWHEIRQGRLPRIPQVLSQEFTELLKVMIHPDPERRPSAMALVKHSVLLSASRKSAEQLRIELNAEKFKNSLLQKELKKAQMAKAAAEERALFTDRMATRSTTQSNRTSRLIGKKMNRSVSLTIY

One assay addresses GST-tagged-Wee1 kinase (Homo sapiens, UniProt P30291). Nature of the assay: Wee1 time-resolved fluorescence equilibrium binding assay (displacement of Oregon Green-labeled ATP-competitive kinase probe).
Conditions: not given
How it is done:
Wee1 kinase was assayed using a time-resolved fluorescence equilibrium binding assay monitoring displacement of a rapidly reversible Oregon Green-labeled ATP-competitive kinase probe (N-(2-(2-(2-(4-(4-(5-chloro-4-(2-(1-hydroxycyclobutyl)thiazol-5-yl)-1H-pyrrolo[2,3-b]pyridin-2-yl)phenyl)piperazin-1-yl)ethoxy)ethoxy)ethyl)-2′,7′-difluoro-3′,6′-dihydroxy-3-oxo-3H-spiro[isobenzofuran-1,9′-xanthene]-5-carboxamide) by competitive Wee1 inhibitors.
In turn, `Cc1nn(-c2c(Cl)cccc2Cl)c(=O)c2cnc(Nc3ccc(N4C[C@H]5C[C@@H]4CN5)cc3)nc12` [Example 457, 2-({4-[(1R,4R)-2,5-diazabicyclo[2.2.1]hept-2-yl]phenyl}amino)-6-(2,6-dichlorophenyl)-8-methylpyrimido[4,5-d]pyridazin-5(6H)-one] showed a Ki of 0.28 nM.

As for `CN1CCN(c2ccc(Nc3ncc4c(=O)n(-c5c(Cl)cccc5Cl)nc(-c5ccccc5)c4n3)cc2)CC1` [Example 46, 6-(2,6-dichlorophenyl)-2-{[4-(4-methylpiperazin-1-yl)phenyl]amino}-8-phenylpyrimido[4,5-d]pyridazin-5(6H)-one], the Ki was 0.3 nM.

`CCCc1nn(-c2ccccc2C)c(=O)c2cnc(Nc3ccc(N4CCN(C)CC4)cc3)nc12` [Example 18, 6-(2-methylphenyl)-2-{[4-(4-methylpiperazin-1-yl)phenyl]amino}-8-propylpyrimido[4,5-d]pyridazin-5(6H)-one] displayed a Ki of 4 nM.

On to `Cc1nn(-c2c(Cl)cccc2Cl)c(=O)c2cnc(Nc3cccc(NCCN4CCOCC4)c3)nc12` [Example 513, 6-(2,6-dichlorophenyl)-8-methyl-2-[(3-{[2-(morpholin-4-yl)ethyl]amino}phenyl)amino]pyrimido[4,5-d]pyridazin-5(6H)-one], for which affinity was put at a Ki of 1.1 nM.

As for `COC(=O)c1cccc(-c2nn(-c3c(Cl)cccc3Cl)c(=O)c3cnc(Nc4ccc(N5CCN(C)CC5)cc4)nc23)n1` [Example 159, methyl 6-[6-(2,6-dichlorophenyl)-2-{[4-(4-methylpiperazin-1-yl)phenyl]amino}-5-oxo-5,6-dihydropyrimido[4,5-d]pyridazin-8-yl]pyridine-2-carboxylate], the Ki was determined as 0.06 nM.

For the molecule `CN1CCN(C(=O)c2cccc(-c3nn(-c4c(Cl)cccc4Cl)c(=O)c4cnc(Nc5ccc(N6CCN(C)CC6)cc5)nc34)c2)CC1` [Example 192, 6-(2,6-dichlorophenyl)-8-{3-[(4-methylpiperazin-1-yl)carbonyl]phenyl}-2-{[4-(4-methylpiperazin-1-yl)phenyl]amino}pyrimido[4,5-d]pyridazin-5(6H)-one], the Ki amounted to 0.02 nM.

In turn, `Cc1cccc(Cl)c1-n1nc(C)c2nc(Nc3ccc4c(c3)CN(C)CC4(C)C)ncc2c1=O` [Example 498, 6-(2-chloro-6-methylphenyl)-8-methyl-2-[(2,4,4-trimethyl-1,2,3,4-tetrahydroisoquinolin-7-yl)amino]pyrimido[4,5-d]pyridazin-5(6H)-one] yielded a Ki of 0.23 nM.

`Cc1cccc(Cl)c1-n1nc(C)c2nc(Nc3ccc(OC4CCN(C)CC4)cc3)ncc2c1=O` [Example 502, 6-(2-chloro-6-methylphenyl)-8-methyl-2-({4-[(1-methylpiperidin-4-yl)oxy]phenyl}amino)pyrimido[4,5-d]pyridazin-5(6H)-one] showed a Ki of 0.36 nM.

Molecule `CN1CCN(c2ccc(Nc3ncc4c(=O)n(-c5c(Cl)cccc5Cl)nc(-c5ccncn5)c4n3)cc2)CC1` [Example 179, 6-(2,6-dichlorophenyl)-2-{[4-(4-methylpiperazin-1-yl)phenyl]amino}-8-(pyrimidin-4-yl)pyrimido[4,5-d]pyridazin-5(6H)-one] came in with a Ki of 0.1 nM.

In the case of `O=c1c2cnc(Nc3ccc(C4CCNC4)cc3)nc2c(C(F)(F)F)nn1-c1c(Cl)cccc1Cl` (centres unmarked) [Example 422, 6-(2,6-dichlorophenyl)-2-{[4-(pyrrolidin-3-yl)phenyl]amino}-8-(trifluoromethyl)pyrimido[4,5-d]pyridazin-5(6H)-one], the Ki worked out at 0.4 nM.

The molecule `CCCc1nn(C)c(=O)c2cnc(Nc3ccc(N4CCN(C)CC4)cc3)nc12` [Example 11, 6-methyl-2-{[4-(4-methylpiperazin-1-yl)phenyl]amino}-8-propylpyrimido[4,5-d]pyridazin-5(6H)-one] showed a Ki of 730 nM.

`CN1Cc2cc(Nc3ncc4c(=O)n(-c5c(Cl)cccc5Cl)nc(-c5cn(C)cn5)c4n3)ccc2C2(CC2)C1` [Example 339, 6-(2,6-dichlorophenyl)-2-[(2′-methyl-2′,3′-dihydro-1′H-spiro[cyclopropane-1,4′-isoquinolin]-7′-yl)amino]-8-(1-methyl-1H-imidazol-4-yl)pyrimido[4,5-d]pyridazin-5(6H)-one]: the Ki was 0.71 nM.

In the case of `CN1CCN(c2ccc(Nc3ncc4c(=O)n(-c5ccccc5)nc(-c5cccnc5Cl)c4n3)cc2)CC1` [Example 78, 8-(2-chloropyridin-3-yl)-2-{[4-(4-methylpiperazin-1-yl)phenyl]amino}-6-phenylpyrimido[4,5-d]pyridazin-5(6H)-one], affinity was put at a Ki of 48 nM.

Turning to `Cc1ccccc1-n1nc(-c2ccccc2)c2nc(Nc3ccc(CN(C)C)cc3)ncc2c1=O` [Example 111, 2-({4-[(dimethylamino)methyl]phenyl}amino)-6-(2-methylphenyl)-8-phenylpyrimido[4,5-d]pyridazin-5(6H)-one], the Ki amounted to 2.5 nM.

`Cc1ccccc1-n1nc(C2CCCC2)c2nc(Nc3ccc(N4CCN(C)CC4)cc3)ncc2c1=O` [Example 49, 8-cyclopentyl-6-(2-methylphenyl)-2-{[4-(4-methylpiperazin-1-yl)phenyl]amino}pyrimido[4,5-d]pyridazin-5(6H)-one] displayed a Ki of 9 nM.

`Nc1ccc(N2CCN(c3ncc4c(=O)n(-c5ccncc5)nc(-c5ccccn5)c4n3)CC2)cc1` [Example 218, 2-(4-(4-aminophenyl)piperazin-1-yl)-8-(pyridin-2-yl)-6-(pyridin-4-yl)pyridazino[4,5-d]pyrimidin-5(6H)-one] showed a Ki of 480 nM.

Molecule `CS(=O)(=O)N1CCN(c2ccc(Nc3ncc4c(=O)n(-c5c(Cl)cccc5Cl)nc(-c5ccccn5)c4n3)cc2)CC1` [Example 376, 6-(2,6-dichlorophenyl)-2-({4-[4-(methylsulfonyl)piperazin-1-yl]phenyl}amino)-8-(pyridin-2-yl)pyrimido[4,5-d]pyridazin-5(6H)-one] registered a Ki of 1.3 nM.

On to `O=c1c2cnc(Nc3ccc(S(=O)(=O)N4CCOCC4)cc3)nc2c(-c2ccccc2)nn1-c1ccccc1Cl` [Example 255, 6-(2-chlorophenyl)-2-{[4-(morpholin-4-ylsulfonyl)phenyl]amino}-8-phenylpyrimido[4,5-d]pyridazin-5(6H)-one], for which the Ki is above 3140 nM.

`Cc1cc(Nc2ncc3c(=O)n(-c4ccccc4C)nc(-c4cccs4)c3n2)ccc1N1CCCN(C(C)C)CC1` [Example 120, 2-{[4-(4-isopropyl-1,4-diazepan-1-yl)-3-methylphenyl]amino}-6-(2-methylphenyl)-8-(2-thienyl)pyrimido[4,5-d]pyridazin-5(6H)-one] returned a Ki of 1 nM.

Molecule `CCc1nn(-c2c(Cl)cccc2Cl)c(=O)c2cnc(Nc3ccc4c(c3)CN(C)CC4)nc12` [Example 493, 6-(2,6-dichlorophenyl)-8-ethyl-2-[(2-methyl-1,2,3,4-tetrahydroisoquinolin-7-yl)amino]pyrimido[4,5-d]pyridazin-5(6H)-one] displayed a Ki of 0.86 nM.

`Cc1nn(-c2c(Cl)cccc2Cl)c(=O)c2cnc(Nc3cccc(C(=O)N4CCS(=O)(=O)CC4)c3)nc12` [Example 529, 6-(2,6-dichlorophenyl)-2-({3-[(1,1-dioxidothiomorpholin-4-yl)carbonyl]phenyl}amino)-8-methylpyrimido[4,5-d]pyridazin-5(6H)-one] yielded a Ki of 9.4 nM.

`O=c1c2cnc(Nc3ccc4c(c3)CCNC4)nc2c(C(F)F)nn1-c1c(Cl)cccc1Cl` [Example 473, 6-(2,6-dichlorophenyl)-8-(difluoromethyl)-2-(1,2,3,4-tetrahydroisoquinolin-6-ylamino)pyrimido[4,5-d]pyridazin-5(6H)-one]: the Ki was 0.38 nM.

`O=c1c2cnc(Nc3ccc(N4CCNCC4)cc3)nc2cnn1-c1c(Cl)cccc1Cl` [Example 325, 6-(2,6-dichlorophenyl)-2-{[4-(piperazin-1-yl)phenyl]amino}pyrimido[4,5-d]pyridazin-5(6H)-one] registered a Ki of 0.7 nM.

Molecule `O=c1c2cnc(Nc3ccc4c(c3)CNCC43CC3)nc2c(C(F)(F)F)nn1-c1c(Cl)cccc1Cl` [Example 420, 6-(2,6-dichlorophenyl)-2-(2′,3′-dihydro-1′H-spiro[cyclopropane-1,4′-isoquinolin]-7′-ylamino)-8-(trifluoromethyl)pyrimido[4,5-d]pyridazin-5(6H)-one] gave a Ki of 0.45 nM.

Turning to `Cc1cccc(Cl)c1-n1nc(C)c2nc(Nc3ccc4c(c3)CCNC4)ncc2c1=O` [Example 496, 6-(2-chloro-6-methylphenyl)-8-methyl-2-(1,2,3,4-tetrahydroisoquinolin-6-ylamino)pyrimido[4,5-d]pyridazin-5(6H)-one], the Ki was found to be 0.34 nM.

Consider `C=CCn1nc(CCc2ccccc2)c2nc(Nc3ccc(N4CCN(C)CC4)cc3)ncc2c1=O` [Example 7, 6-allyl-2-{[4-(4-methylpiperazin-1-yl)phenyl]amino}-8-(2-phenylethyl)pyrimido[4,5-d]pyridazin-5(6H)-one], for which the Ki came out at 250 nM.

For the molecule `COc1cc(Nc2ncc3c(=O)n(-c4ccccc4Cl)nc(-c4cccs4)c3n2)ccc1N1CCN(C(C)C)CC1` [Example 174, 6-(2-chlorophenyl)-2-{[4-(4-isopropylpiperazin-1-yl)-3-methoxyphenyl]amino}-8-(2-thienyl)pyrimido[4,5-d]pyridazin-5(6H)-one], affinity was put at a Ki of 0.1 nM.

Regarding `O=c1c2cnc(Nc3ccc4c(c3)CNCC43CC3)nc2c(-c2nccs2)nn1-c1c(Cl)cccc1Cl` [Example 345, 6-(2,6-dichlorophenyl)-2-(2′,3′-dihydro-1′H-spiro[cyclopropane-1,4′-isoquinolin]-7′-ylamino)-8-(1,3-thiazol-2-yl)pyrimido[4,5-d]pyridazin-5(6H)-one], the Ki amounted to 0.34 nM.

The same assay, now with this note: read-out: Wee-1 inhibition Ki.
As to `Cc1nn(-c2c(Cl)cccc2Cl)c(=O)c2cnc(Nc3ccc4c(c3)CNCC4)nc12` [Example 371], the Ki came out at 0.2 nM.
